According to US20110152379A1, “COMPOSITION FOR CONTROL OF AGING AND/OR EXTENSION OF LIFE, CONTAINING DAPSONE AS ACTIVE INGREDIENT” (priority 2008, published 2011):

Test system: mitochondria complex V
Assay: Western blot of mitochondria complex V amount in C. elegans
Format: in vivo
Conditions: C. elegans treated with DDS; FIG. 8
Description: C. elegans was isolated and collected by using dense sucrose (Centrifugation) and was washed with S buffer solution to remove a contaminant. In order to isolate mitochondria, C. elegans was twice homogenized in MSM buffer solution (220 mM mannitol, 10 mM sucrose, 5 mM MOPS, pH 7.4, with KOH) containing 0.2% of BSA at 5000 rpm for 20 seconds by using Precellys24 Homogenizer (Medinova) and Glass bead. The residue and non-homogenized C. elegans were removed fro the homogenized C. elegans through a centrifuge (380 g, 5 min) by using MSM buffer solution. The precipitate of homogenous substance that was centrifuged at 4500 g for 5 minutes, i.e., mitochondria were prepared. The rest was prepared as a part of cytoplasm. […] The quantitation of protein was performed by using BCA protein detection kit (Pierce).
The lysates of C. elegans grown under appropriate condition (containing PABA alone or PABA and dapsone) were prepared. […] After transferring to a nitrocellulose, they were analyzed by using Western Blot using MS601 (subunit α of F1 of ATP synthase, Oxphos Complexes detection kit, Mitoscience, 1:1,000) and α-Tubulin (Sigma; 1:2,000) antibody. The result was detected by using ECL (Pierce) and a horseradish peroxidase-conjugated secondary antibody.

SMILES: Nc1ccc(S(=O)(=O)c2ccc(N)cc2)cc1 [DDS, 4,4′-diaminodiphenylsulfone]
- amount of complex V: significantly decreased
